Assay results reported in patent US20050032896A1, “Use of synthetic retinoic acid in form of 13-cis vitamin A for treatment of autism” (priority 2002, published 2005).

How the values were obtained:
Format in all cases: in vivo, human
symptoms of autism = experiment: Oral treatment of an autistic subject, observed symptoms of autism
Excerpt: The patient in the present example is a child, weighs approximately 60 pounds, and is characterized by the symptoms of deficiencies in short term memory, inadequate independent problem solving skills for their age, deficient spontaneous verbalizations, utterances of diminished length, infrequent request to interact with family members and friends, insufficient capacity to master the complexity of play schemes for their age, and a tendency toward abnormal emotional responses (i.e. laughing when someone is seriously hurt in a movie, not offering assistance to family members when hurt, and not laughing along with siblings while watching cartoons, but instead tensing and becoming overly excited).
The subject weighing approximately 60 pounds was given a dosage of synthetic retinoic acid in the form of 13-cis vitamin A in amounts from about […] to about 40 mg per 60 lbs of body weight per day. […] Improvements in lessening the symptoms associated with the autism disorder were noted as early as 10 days into the treatment, with solid gains noted by the 17th day into the treatment.
(§1) As an example, the improvements in relief or elimination of symptoms of autistic disorder after about 17 days of administering synthetic retinoic acid in the form of 13-cis vitamin A at dosage levels of from about 20 mg every other day to about 40 mg per day, auditory evoked potential (AEP) responses were given before administering the mentioned dosage and after administration of the dosage regimen.

synaptic activity = experiment: Auditory evoked potential (AEP) responses before and after the dosage regimen; settings: after the dosage regimen versus before
Experimental: as §1

[1] = Blood analysis for retinoic acid content after oral vitamin A palmitate, first vitamin A study 1996; settings: autistic subject; vitamin A palmitate day 1=0, day 2=25,000 IU, day 3 through day 7=50,000 IU
Experimental: In the first vitamin A study in 1996, a sample of the autistic subjects blood was analyzed for retinoic acid content on the belief that there was a deficiency of retinoic acid. At this time, the subject had been receiving up to about 50,000 IU dose of vitamin A palmitate, wherein day 1=0, day 2=25,000 IU and day 3 through day 7=50,000 IU. The RDA is 5,000 IU per day.

[2] = Blood analysis for retinoic acid content after oral vitamin A palmitate, second study 1999 to 2000; settings: autistic subject; oral 20 mg every other day for two weeks, then 40 mg per day up to 5 months
Experimental: In a second study conducted in a period from 1999 to 2000, the autistic subject was orally given retinoic acid in the form of […] in an amount of 20 mg every other day for two weeks, and thereafter the dosage was increased to 40 mg per day for a period up to 5 months. […] Although there are numerous cis-trans isomers of vitamin A, there is no possibility for cis-trans isomerism about the cyclohexane double bond because the ring contains only 6 atoms. There are four carbon-carbon double bonds in the chain of atoms attached to the substituted cyclohexane ring, and each has the potential for cis-trans isomerism. Therefore, there are 2×2×2×2, or 16, possible cis-trans isomers for vitamin A. [drawing 1]

[3] = 20 mg every other day for two weeks, then 40 mg per day, oral
[4] = autistic subject, oral dosage regimen

SMILES | time into treatment at which improvements in symptoms were first noted (symptoms of autism; [3]) [days] | time into treatment at which solid gains were noted (symptoms of autism; [3]) [days] | language and cognitive functions (symptoms of autism; after the dosage regimen for between about 10 and 17 days) | capability to master the complexity of play schemes (symptoms of autism; [4]) | frequency of request to interact with family members and friends (symptoms of autism; [4]) | independent problem solving skills (symptoms of autism; [4]) | length of utterances (symptoms of autism; [4]) | short term memory (symptoms of autism; [4]) | spontaneous verbalizations (symptoms of autism; [4]) | tendencies towards more normalized emotional responses (symptoms of autism; [4]) | optimal dose for lessening the symptoms of autism (symptoms of autism; for two weeks, thereafter increased to 40 mg per day, person, approx. 60 pounds, oral) | synaptic activity recorded by audio evoked potentials (AEP) (synaptic activity) | retinoic acid content in blood [1] | retinoic acid content in blood samples [2]
CC1=C(/C=C/C(C)=C/C=C/C(C)=C\C(=O)O)C(C)(C)CCC1 | 10 | ≤ 17 | noted improvement in language and cognitive functions | increase in the capability to master the complexity of play schemes | increase in the frequency of request to interact with family members and friends | improvement in independent problem solving skills | increase in the length of utterances | Improvement in short term memory | increase in spontaneous verbalizations | improvement in tendencies towards more normalized emotional responses | about 20 mg per 60 lbs of body weight every other day | increase in synaptic activity | – | –
CCCCCCCCCCCCCCCC(=O)OC/C=C(C)/C=C/C=C(C)/C=C/C1=C(C)CCCC1(C)C [vitamin A palmitate] | – | – | – | – | – | – | – | – | – | – | – | – | no retinoic acid could be detected | contained no retinoic acid
